This is an account of results in article PMC2908295 (Journal of medicinal chemistry, 2010).

Square brackets hold non-standard residues; d marks the D form. Peptide text beside a SMILES is read from it. * marks the point of attachment. X1 = C[C@@H](CCC[N+](C)(C)C)C(=O)*; Tle = CC(C)(C)[C@H](N)C(=O)O Some results are limits rather than exact numbers.

In series [1] the test system is male Sprague-Dawley rats. Kind of series: Hypothermia assay. Conditions: rat. The format is in vivo.
The nature of series [2]: PK analysis by NTR-1 binding activity in plasma. The format is in vivo. Particulars: rat, i.v., NTR-1 radiolabel competition assay.
A further series in a line: PK analysis by LC/MS. The format is in vivo. Conditions: rat, iv, 1 mg/kg.
The test system of a further series is rats. Kind of series: Chung model for neuropathic pain. The format is in vivo. Particulars: rat, single dose of 10 mg/kg i.p., n = 5.
The test system of series [3] is male Sprague-Dawley rats. Kind of series: Hotplate model. The format is in vivo, rat.
In series [4] the test system is male Sprague-Dawley rats. Kind of series: Acetic acid writhing model. The format is in vivo. Conditions: rat, i.v., 3% acetic acid i.p. 20 min after drug, n = 3 for all doses. On the technique in general: In writhing tests, fewer writhes than in controls are read as antinociception.
The mark [5] stands for this setting: rat hotplate, morphine 5 mg/kg i.p., n ≥ 6.

`CC(C)C[C@H](NC(=O)[C@@H](NC(=O)[C@H](Cc1ccc(O)cc1)NC(=O)[C@@H]1CCCN1C(=O)[C@H](CCCNC(=N)N)NC(=O)[C@@H](C)CCC[N+](C)(C)C)C(C)(C)C)C(=O)O` [Compound 1] (X1-RPY[Tle]L-OH; N-terminus assumed): the “duration of drop in core body temperature” value in the series on male Sprague-Dawley rats [1] (10 mg/kg i.v., n ≥ 4) is recorded as above 4 h. In the series on male Sprague-Dawley rats [1] (i.v., rectal temperature every 15 min for 4 h, n = 3 for all doses), the “EC50 hypothermia (area under the PD curves)” value is 0.78 mg/kg. For the same compound, the “time until plasma NTR-1 binding returned to level of non-treated animals” value in series [2] stood at 60 min. In addition, in “PK analysis by LC/MS” (in vivo), the Tmax (usually the time from dosing to the highest level) is at most 5 min. Moreover, in the series “PK analysis by LC/MS” (plasma), the half-life (in general, the time needed for the level to fall by half in the phase considered) is 26.3 min. Further, the “duration of maximal response, Chung model” value in the series on rats is on record as “maintained for over one hour”. In the series on male Sprague-Dawley rats [3] (rat hotplate, comparison with hydrolysis products, cut-off 30 s), this compound showed a maximum response latency of 30 s. Besides, the “EC50 hotplate, i.m.” value with male Sprague-Dawley rats [3] (rat, i.m., assessed after 60 min, n = 3 for all doses) came out at 2.45 mg/kg. The “EC50 hotplate, i.p.” value with male Sprague-Dawley rats [3] (rat, i.p., assessed after 60 min, n = 3 for all doses) amounted to 2.00 mg/kg. The “EC50 hotplate, i.v.” value in the series on male Sprague-Dawley rats [3] (rat, i.v., assessed after 60 min, n = 3 for all doses) worked out at 2.64 mg/kg. The “EC50 hotplate, s.c.” value in the series with male Sprague-Dawley rats [3] (rat, s.c., assessed after 60 min, n = 3 for all doses) was 3.84 mg/kg. In addition, in the series with male Sprague-Dawley rats [4], the “EC50 acetic acid writhing” value was 0.16 mg/kg.

As for `CN1CC[C@]23c4c5ccc(O)c4O[C@H]2[C@@H](O)C=C[C@H]3[C@H]1C5` [morphine, reference compound], in the series with male Sprague-Dawley rats [3] (setting [5]), the “maximal response (% of MPE), morphine benchmark” value is recorded as 100%; the “time of return of response to baseline” value is listed as at most 200 min; the “time to reach 100% MPE” value was 15 to 30 min.
